By EC50 is commonly meant the concentration needed to bring the measured effect to its halfway point.

Bounds are passed on as bounds.

This assay deals with RKO p21 uninduced (proliferating) colon adenocarcinoma cells. Kind of assay: Alamar Blue cell viability assay, RKO p21 uninduced (proliferating). Format: cell-based. The following applies: Homo sapiens, Table B3, anti-proliferative/cytotoxic activity, 72 hours, read-out: −log EC50 RKO p21 uninduced (proliferating) (converted). The method, boiled down: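 RKO p21 or p27 subclones grown without Ponasterone A, i.e. proliferating, exposed 24 h after seeding to semi-log compound dilutions in DMEM/10% FCS (1% DMSO controls) for 72 h at 37° C. Alamar Blue fluorescence (544/590 nm) read relative to untreated cells; EC50 from dose-response curves, given as −log EC50 (mol/l).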
(In general: Resazurin is reduced to fluorescent resorufin, in cell work by metabolically active cells.)
For `CCN(C)CCN1C(=O)N2[C@H](c3cccc(O)c3)c3[nH]c4ccc(OC(F)F)cc4c3C[C@@]2(C)C1=O` (racemic) [Example 275, (3aSR,10RS)-6-(1,1-Difluoro-methoxy)-2-[2-(ethyl-methyl-amino)-ethyl]-10-(3-hydroxy-phenyl)-3a-methyl-3a,4,9,10-tetrahydro-2,9,10a-triaza-cyclopenta[b]fluorene-1,3-dione], the EC50 is at most 39.8 nM.
For the compound `C#CCNCCCN1C(=O)N2[C@H](c3cccc(O)c3)c3[nH]c4ccc(OCC)cc4c3C[C@@]2(C)C1=O` (racemic) [Example 225, (3aSR,10RS)-6-Ethoxy-10-(3-hydroxy-phenyl)-3a-methyl-2-(3-prop-2-ynylamino-propyl)-3a,4,9,10-tetrahydro-2,9,10a-triaza-cyclopenta[b]fluorene-1,3-dione], the concentration for a half-maximal effect (EC50) was 39.8 to 251 nM.
Take `CCN(CC)CCCN1C(=O)N2[C@H](c3cccc(O)c3)c3[nH]c4cc(F)c(Cl)cc4c3C[C@@]2(C)C1=O` (racemic) [Example 469, (3aSR,10RS)-6-Chloro-2-(3-diethylamino-propyl)-7-fluoro-10-(3-hydroxy-phenyl)-3a-methyl-3a,4,9,10-tetrahydro-2,9,10a-triaza-cyclopenta[b]fluorene-1,3-dione]: the EC50 is at most 39.8 nM.
`CC(=O)N1CCN(CCCN2C(=O)N3[C@H](c4cccc(O)c4)c4[nH]c5cc(F)c(Cl)cc5c4C[C@@]3(C)C2=O)CC1` (racemic) [Example 482, (3aSR,10RS)-2-[3-(4-Acetyl-piperazin-1-yl)-propyl]-6-chloro-7-fluoro-10-(3-hydroxy-phenyl)-3a-methyl-3a,4,9,10-tetrahydro-2,9,10a-triaza-cyclopenta[b]fluorene-1,3-dione]: the EC50 is 39.8 to 251 nM.
As for `COc1ccc2[nH]c3c(c2c1)C[C@@]1(C)C(=O)N(CCCNC(C)(C)C)C(=O)N1[C@@H]3c1cccc(O)c1` [Example 538, (3aS,10R)-2-(3-tert-Butylamino-propyl)-10-(3-hydroxy-phenyl)-6-methoxy-3a-methyl-3a,4,9,10-tetrahydro-2,9,10a-triaza-cyclopenta[b]fluorene-1,3-dione], the figure is at most 39.8 nM; as for `CCN(CCO)CCN1C(=O)N2[C@H](c3cccc(O)c3)c3[nH]c4ccc(Br)cc4c3C[C@@]2(C)C1=O` (racemic) [Example 379, (3aSR,10RS)-6-Bromo-2-{2-[ethyl-(2-hydroxy-ethyl)-amino]-ethyl}-10-(3-hydroxy-phenyl)-3a-methyl-3a,4,9,10-tetrahydro-2,9,10a-triaza-cyclopenta[b]fluorene-1,3-dione], at most 39.8 nM; as for `CCN(CCO)CCCN1C(=O)N2[C@H](c3cccc(O)c3)c3[nH]c4ccc(Cl)cc4c3C[C@@]2(C)C1=O` (racemic) [Example 168, (3aSR,10RS)-6-Chloro-2-{3-[ethyl-(2-hydroxy-ethyl)-amino]-propyl}-10-(3-hydroxy-phenyl)-3a-methyl-3a,4,9,10-tetrahydro-2,9,10a-triaza-cyclopenta[b]fluorene-1,3-dione], at most 39.8 nM.
As for `COc1ccc2[nH]c3c(c2c1F)C[C@@]1(C)C(=O)N(CCNC(C)(C)C)C(=O)N1[C@@H]3c1cccc(O)c1` (racemic) [Example 414, (3aSR,10RS)-2-(2-tert-Butylamino-ethyl)-5-fluoro-10-(3-hydroxy-phenyl)-6-methoxy-3a-methyl-3a,4,9,10-tetrahydro-2,9,10a-triaza-cyclopenta[b]fluorene-1,3-dinone], the figure is 39.8 to 251 nM; as for `CC(C)NCCN1C(=O)N2[C@H](c3cccc(O)c3)c3[nH]c4cc(F)c(Cl)cc4c3C[C@@]2(C)C1=O` (racemic) [Example 339, (3aSR,10RS)-6-Chloro-7-fluoro-10-(3-hydroxy-phenyl)-2-(2-isopropylamino-ethyl)-3a-methyl-3a,4,9,10-tetrahydro-2,9,10a-triaza-cyclopenta[b]fluorene-1,3-dione], at most 39.8 nM.
As for `CCN(CC)CCCN1C(=O)N2[C@H](c3cccc(O)c3)c3[nH]c4ccc(Br)cc4c3C[C@@]2(C)C1=O` (racemic) [Example 228, (3aSR,10RS)-6-Bromo-2-(3-diethylamino-propyl)-10-(3-hydroxy-phenyl)-3a-methyl-3a,4,9,10-tetrahydro-2,9,10a-triaza-cyclopenta[b]fluorene-1,3-dione], the figure is at most 39.8 nM; as for `CCN(CCO)CCN1C(=O)N2[C@H](c3cccc(O)c3)c3[nH]c4ccc(OC(F)F)cc4c3C[C@@]2(C)C1=O` (racemic) [Example 277, (3aSR,10RS)-6-(1,1-Difluoro-methoxy)-2-{2-[ethyl-(2-hydroxy-ethyl)-amino]-ethyl}-10-(3-hydroxy-phenyl)-3a-methyl-3a,4,9,10-tetrahydro-2,9,10a-triaza-cyclopenta[b]fluorene-1,3-dione], 39.8 to 251 nM; as for `CC(C)CNCCCN1C(=O)N2[C@H](c3cccc(O)c3)c3[nH]c4ccc(Br)cc4c3C[C@@]2(C)C1=O` (racemic) [Example 213, (3aSR,10RS)-6-Bromo-10-(3-hydroxy-phenyl)-2-(3-isobutylamino-propyl)-3a-methyl-3a,4,9,10-tetrahydro-2,9,10a-triaza-cyclopenta[b]fluorene-1,3-dione], at most 39.8 nM.
`CCOc1ccc2[nH]c3c(c2c1)C[C@@]1(C)C(=O)N(CCN2CCC(C)CC2)C(=O)N1[C@@H]3c1cccc(O)c1` (racemic) [Example 302, (3aSR,10RS)-6-Ethoxy-10-(3-hydroxy-phenyl)-3a-methyl-2-[2-(4-methyl-piperidin-1-yl)-ethyl]-3a,4,9,10-tetrahydro-2,9,10a-triaza-cyclopenta[b]fluorene-1,3-dione]: the EC50 was 39.8 to 251 nM.
Then `C[C@@]12Cc3c([nH]c4ccc(OC(F)F)cc34)[C@@H](c3cccc(O)c3)N1C(=O)N(CCCN1CC=CC1)C2=O` (racemic) [Example 238, (3aSR,10RS)-6-(1,1-Difluoro-methoxy)-2-[3-(2,5-dihydro-pyrrol-1-yl)-propyl]-10-(3-hydroxy-phenyl)-3a-methyl-3a,4,9,10-tetrahydro-2,9,10a-triaza-cyclopenta[b]fluorene-1,3-dione], with at most 39.8 nM; and `COc1ccc2[nH]c3c(c2c1)C[C@@]1(C)C(=O)N(CCCNCCO)C(=O)N1[C@@H]3c1cccc(O)c1` [Example 536, (3aS,10R)-2-[3-(2-Hydroxy-ethylamino)-propyl]-10-(3-hydroxy-phenyl)-6-methoxy-3a-methyl-3a,4,9,10-tetrahydro-2,9,10a-triaza-cyclopenta[b]fluorene-1,3-dione], with at most 39.8 nM; and `COc1cc2c3c([nH]c2cc1F)[C@@H](c1cccc(O)c1)N1C(=O)N(CCCN2CC=CCC2)C(=O)[C@]1(C)C3` (racemic) [Example 326, (3aSR,10RS)-2-[3-(3,6-Dihydro-2H-pyridin-1-yl)-propyl]-7-fluoro-10-(3-hydroxy-phenyl)-6-methoxy-3a-methyl-3a,4,9,10-tetrahydro-2,9,10a-triaza-cyclopenta[b]fluorene-1,3-dione], with 39.8 to 251 nM.
`CC1CCN(CCCN2C(=O)N3[C@H](c4cccc(O)c4)c4[nH]c5ccc(OC(F)F)cc5c4C[C@@]3(C)C2=O)CC1` (racemic) [Example 244, (3aSR,10RS)-6-(1,1-Difluoro-methoxy)-10-(3-hydroxy-phenyl)-3a-methyl-2-[3-(4-methyl-piperidin-1-yl)-propyl]-3a,4,9,10-tetrahydro-2,9,10a-triaza-cyclopenta[b]fluorene-1,3-dione]: the EC50 was 39.8 to 251 nM.

The record behind these values is patent US8530493B2, “Indolopyridines as Eg5 kinesin modulators” (4SC AG, priority 2006, dated 2013).
